Test results from patent US9617258B2, “Pyrrolo[2,3-d]pyrimidinyl, pyrrolo[2,3-b]pyrazinyl and pyrrolo[2,3-d]pyridinyl acrylamides” (Pfizer Inc., priority 2013, dated 2017).
Like-named read-outs stand apart in the source and are kept apart here.

What was measured:
JAK3 enzyme [1] = biological target: T1, JAK3 enzyme (Homo sapiens (Human), UniProt P52333); test: JAK Caliper enzyme assay at 1 mM ATP; format: biochemical
Procedure: (§1) JAK Caliper Enzyme Assay at 4 μM or 1 mM ATP
(§2) Test article was solubilized in dimethyl sulfoxide (DMSO) to a stock concentration of 30 mM. An 11-point half log dilution series was created in DMSO with a top concentration of 600 μM. […] The compound plates were diluted 1 to 60 resulting in a top final assay compound concentration of 10 μM and a 2% DMSO concentration.
(§3) Test article and assay controls were added to a 384-well plate. Reaction mixtures contained 20 mM HEPES, pH 7.4, 10 mM magnesium chloride, 0.01% bovine serum albumin (BSA), 0.0005% Tween 20, 4 μM or 1 mM ATP and 1 μM peptide substrate. […] The assays were initiated by the addition 1 nM JAK3 enzyme and were incubated at room temperature 75 minutes for JAK3. Enzyme concentrations and incubation times were optimized for each new enzyme preps and were modified slightly over time to ensure 20%-30% phosphorylation. The assays were stopped with a final concentration of 10 mM EDTA, 0.1% Coating Reagent and 100 mM HEPES, pH=7.4. The assay plates were placed on a Caliper Life Science Lab Chip 3000 (LC3000) instrument, and each well was sampled using appropriate separation conditions to measure the unphosphorylated and phosphorylated peptide.

JAK3 enzyme [2] = biological target: T1, JAK3 enzyme; test: JAK Caliper enzyme assay at 4 μM ATP; format: biochemical
Procedure: as §1, §2, §3

[3] = tested on: IL-15 induced P-STAT5 in human PBMC; test: PBMC IL-15 induced P-STAT5; format: cell-based; settings: IL-15 stimulated, read-out: PBMC IL15-STAT5 IC50
Procedure: PBMC IL-15 Induced P-STAT5
Frozen human PBMC (200-250 million cells/vial) was thawed at 37° C. The cells were transferred to 10 mL warm medium in a 50-mL conical tube, and centrifuged at 1,200 RPM at room temperature for 5 min. The supernatant was aspirated. […] After adding 47 ml D-PBS (37° C.) to PBMC/FBS suspension, centrifuging at 1,200 RPM at room temperature for 5 min, and aspirating the supernatant, the cells were resuspended in 20 mL warm RPMI medium. Ninety μL of cell suspension were pipetted per well in a 96-well, deep-well, V-bottom plate, and the plate was incubated at 37° C. for 30 min. […] After adding 0.8 mL staining buffer per well, the plates were centrifuged at 1,200 RPM (Beckman GS-6R or Sorvall Legend) at room temperature for 5 min, and again the supernatant was aspirated using a 8-channel or 12-channel manifold. The plate was vortexed, and 0.35 mL 90% methanol/10% H2O (−20° C.) was added per well, and the plate incubated on ice for 20 min. After again adding 0.8 mL staining buffer per well, the plates were centrifuged at 1,200 RPM (Beckman GS-6R or Sorvall Legend) at room temperature for 5 min, and again the supernatant was aspirated using a 8-channel or 12-channel manifold, and then 0.8 mL Staining buffer was added per well. […] Samples were analyzed using a BD Calibur™ or BD FACSCanto™ flow cytometer equipped with the BD High Throughput Sampler.

[4] = tested on: IL-15 induced STAT5 phosphorylation in human whole blood lymphocytes; test: HWB IL-15 induced STAT5 phosphorylation assay; format: cell-based; settings: Lymphocyte, IL-15 stimulated, read-out: HWB-IL15-pSTAT5 IC50
Procedure: HWB IL-15 Induced STAT5 Phosphorylation Assay
After mixing and incubating for 45 minutes at 37° C., 5 μl D-PBS (unstimulated control) or 20× stocks of 5 μl human IL-15 (final concentration is 50 ng/ml) were added, and mixed three times. After incubating 15 minutes at 37° C., 1× Lyse/Fix Buffer (BD Phosflow 5× Lyse/Fix Buffer) was added to all wells at 1000 μl/well, then incubated for 20 minutes at 37° C. and spun 5 mins at 1200 rpm. […] Following incubating at 4° C. over night, all the samples were transferred to 96-well polypropylene U-bottom plate, and checked by flow cytometry gated on total lymphocytes.

[5] = Stability of JAK3 covalent inhibitors in human whole blood; format: in vitro ADME; settings: both sexes, 37° C., read-out: Human blood stability t1/2;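 note: parent compound remaining over incubation time quantified by LC-MS/MS as peak area ratio against an internal standard, using pooled K2-EDTA blood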
Text: Stability of JAK3 Covalent Inhibitors in Rat and Human Whole Blood
Rat blood was collected from 3 male Sprague-Dawley rats (200-250 g, Charles River Laboratories) and pooled for each study. Human blood was collected from one male and one female healthy subjects at the Occupational Health & Wellness Center at Pfizer, Groton, CT and pooled for each study. Both rat and human blood was collected freshly into K2-EDTA tubes and kept on ice. An aliquot of the blood was transferred to microtubes and pre-warmed for 10 min at 37° C. using a heat block. […] An aliquot of the incubation mixture was removed at designated time points during the course of the incubation, mixed with an aliquot of acetonitrile containing an internal standard, vortexed and centrifuged. The resulting supernatants were removed and subjected to LC-MS/MS analyses to determine parent compound concentrations. Peak area ratios of the parent compound vs the internal standard were used to determine the % of parent compound remaining vs incubation time.

T1 sequence (P52333 whole entry, species assumed): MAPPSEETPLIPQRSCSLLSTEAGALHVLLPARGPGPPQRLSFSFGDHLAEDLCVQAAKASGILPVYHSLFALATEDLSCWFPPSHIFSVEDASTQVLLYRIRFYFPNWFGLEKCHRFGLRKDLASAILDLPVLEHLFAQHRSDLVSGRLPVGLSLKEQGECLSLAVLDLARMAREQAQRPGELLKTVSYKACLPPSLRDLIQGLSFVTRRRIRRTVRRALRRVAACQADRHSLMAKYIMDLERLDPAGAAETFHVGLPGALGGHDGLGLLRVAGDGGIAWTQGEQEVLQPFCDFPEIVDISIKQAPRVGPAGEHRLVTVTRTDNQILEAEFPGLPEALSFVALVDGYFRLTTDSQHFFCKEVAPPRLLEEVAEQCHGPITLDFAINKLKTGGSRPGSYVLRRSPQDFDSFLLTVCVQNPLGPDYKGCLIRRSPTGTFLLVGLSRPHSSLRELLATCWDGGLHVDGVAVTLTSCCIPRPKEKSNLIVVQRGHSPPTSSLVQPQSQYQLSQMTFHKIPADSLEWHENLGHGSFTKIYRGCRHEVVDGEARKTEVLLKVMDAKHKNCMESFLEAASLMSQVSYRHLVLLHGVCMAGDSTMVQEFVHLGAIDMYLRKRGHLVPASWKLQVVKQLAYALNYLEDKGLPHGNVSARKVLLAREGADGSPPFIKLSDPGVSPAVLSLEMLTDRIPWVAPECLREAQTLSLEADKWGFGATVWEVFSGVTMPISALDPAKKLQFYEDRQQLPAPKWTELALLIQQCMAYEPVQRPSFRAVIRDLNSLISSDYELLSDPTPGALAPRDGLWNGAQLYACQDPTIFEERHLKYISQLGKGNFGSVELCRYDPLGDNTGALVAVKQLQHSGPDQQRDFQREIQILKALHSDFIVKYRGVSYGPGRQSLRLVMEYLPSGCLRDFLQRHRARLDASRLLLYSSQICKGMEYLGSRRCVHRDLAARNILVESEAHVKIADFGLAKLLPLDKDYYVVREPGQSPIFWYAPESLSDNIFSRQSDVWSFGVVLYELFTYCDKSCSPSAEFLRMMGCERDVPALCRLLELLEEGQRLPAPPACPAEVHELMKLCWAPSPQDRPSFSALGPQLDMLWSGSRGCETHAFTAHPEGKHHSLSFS

IC50 (JAK3 enzyme [1]) [µM]	IC50 (JAK3 enzyme [2]) [µM]	IC50 (JAK3 enzyme [1]; read-out: JAK3 (1 mM ATP) IC50) [µM]	IC50 (JAK3 enzyme [2]; read-out: JAK3 (4 μM ATP) IC50) [µM]	Compound	further results
8.48	0.0424			C=CC(=O)N1CC[C@H](O)[C@@H](Nc2ncnc3[nH]ccc23)C1 (racemic) [Example 113, rac-1-[(3S,4S)-4-Hydroxy-3-(7H-pyrrolo[2,3-d]pyrimidin-4-ylamino)piperidin-1-yl]prop-2-en-1-one]	
> 10	0.418			C=CC(=O)N1C[C@H](Nc2ncnc3[nH]ccc23)[C@H]2CC[C@@H]1C2 (racemic) [Example 116, Rac-1-((1R,4R,5S)-4-(7H-pyrrolo[2,3-d]pyrimidin-4-ylamino)-2-azabicyclo[3.2.1]octan-2-yl)prop-2-en-1-one]	IC50 [3]: > 10 µM; IC50 [4]: > 10 µM
> 10	0.648			C=CC(=O)N1CCC[C@H](Nc2ncnc3[nH]ccc23)[C@H]1C (racemic) [Example 121, rac-1-((2R,3S)-3-((7H-Pyrrolo[2,3-d]pyrimidin-4-yl)amino)-2-methylpiperidin-1-yl)prop-2-en-1-one]	half-life at 1 μM ([5]; whole blood): > 6 h
	> 10			C/C=C/C(=O)N1CC[C@@H](O)[C@@H](Nc2ncnc3[nH]ccc23)C1 (racemic) [Example 160, rac-(2E)-1-[(3S,4R)-4-Hydroxy-3-(7H-pyrrolo[2,3-d]pyrimidin-4-ylamino)piperidin-1-yl]but-2-en-1-one]	
		> 10	0.727	C/C=C/C(=O)N1CC[C@@H]2CCN(c3ncnc4[nH]ccc34)[C@@H]2C1 [Example 84, (2E)-1-[(3aS,7aS)-1-(7H-pyrrolo[2,3-d]pyrimidin-4-yl)octahydro-6H-pyrrolo[2,3-c]pyridin-6-yl]but-2-en-1-one]	
		> 10	0.149	O=C(C1=CCC1)N1CC[C@@H]2CCN(c3ncnc4[nH]ccc34)[C@@H]2C1 [Example 86, cyclobut-1-en-1-yl[(3aS,7aS)-1-(7H-pyrrolo[2,3-d]pyrimidin-4-yl)octahydro-6H-pyrrolo[2,3-c]pyridin-6-yl]methanone]	half-life at 1 μM ([5]; whole blood): > 6 h
		> 10	0.265	C=CC(=O)N1C[C@H](Nc2ncnc3[nH]ccc23)CC[C@H]1CC [Example 124, 1-[(2R,5R)-2-Ethyl-5-(7H-pyrrolo[2,3-d]pyrimidin-4-ylamino)piperidin-1-yl]prop-2-en-1-one]	
> 10			0.603	C=CC(=O)N1C[C@@H](Nc2ncnc3[nH]ccc23)[C@@H]2CC[C@H]1C2 [Example 126, 1-((1S,4S,5R)-4-(7H-pyrrolo[2,3-d]pyrimidin-4-ylamino)-2-azabicyclo[3.2.1]octan-2-yl)prop-2-en-1-one]	
		> 10	0.19	C=CC(=O)N1C[C@H](Nc2ncnc3[nH]ccc23)[C@H]2CC[C@@H]1C2 [Example 127, 1-((1R,4R,5S)-4-(7H-pyrrolo[2,3-d]pyrimidin-4-ylamino)-2-azabicyclo[3.2.1]octan-2-yl)prop-2-en-1-one]	
		0.0206	0.0002	C=CC(=O)N1CCC(Nc2cnc3[nH]cc(C(=O)N[C@@H]4C[C@H]4C(F)(F)F)c3n2)CC1 [Example 233, 2-[(1-acryloylpiperidin-4-yl)amino]-N-[(1R,2R)-2-(trifluoromethyl)cyclopropyl]-5H-pyrrolo[2,3-b]pyrazine-7-carboxamide]	
0.0844	0.0009			C=CC(=O)N1C[C@@H]2C[C@H]1CN2c1cnc2[nH]cc(C(=O)NC(C)C)c2n1 [Example 300, 2-[(1S,4S)-5-acryloyl-2,5-diazabicyclo[2.2.1]hept-2-yl]-N-(propan-2-yl)-5H-pyrrolo[2,3-b]pyrazine-7-carboxamide]	half-life at 1 μM ([5]; whole blood (fresh, pooled, K2-EDTA)): 1.95 h
